For orientation: IC50 means the concentration that inhibits the measured activity by half. Read a low IC50 as higher potency. Broadly, the inhibition is the relative decrease from the control value, in per cent. Lower therefore signals a weak effect.

For 29 molecules, IC50 and inhibition results are on record in ChEMBL document CHEMBL1126733, “Orally active, nonpeptide vasopressin V1 antagonists. A novel series of 1-(1-substituted 4-piperidyl)-3,4-dihdyro-2(1H)-quinolinone” (J Med Chem, 1993).

Vasopressin V2 receptor, sequence (Q00788 whole entry): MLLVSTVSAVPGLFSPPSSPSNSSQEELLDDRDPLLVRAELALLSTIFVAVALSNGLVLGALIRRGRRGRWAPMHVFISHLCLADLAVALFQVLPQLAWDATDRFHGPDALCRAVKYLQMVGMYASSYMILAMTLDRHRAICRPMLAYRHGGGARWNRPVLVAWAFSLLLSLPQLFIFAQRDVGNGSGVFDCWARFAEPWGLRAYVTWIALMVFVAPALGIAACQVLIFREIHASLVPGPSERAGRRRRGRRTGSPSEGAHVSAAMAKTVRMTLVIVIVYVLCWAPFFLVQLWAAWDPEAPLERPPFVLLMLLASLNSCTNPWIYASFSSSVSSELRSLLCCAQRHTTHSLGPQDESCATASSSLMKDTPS
Vasopressin V1a receptor, sequence (P30560 whole entry): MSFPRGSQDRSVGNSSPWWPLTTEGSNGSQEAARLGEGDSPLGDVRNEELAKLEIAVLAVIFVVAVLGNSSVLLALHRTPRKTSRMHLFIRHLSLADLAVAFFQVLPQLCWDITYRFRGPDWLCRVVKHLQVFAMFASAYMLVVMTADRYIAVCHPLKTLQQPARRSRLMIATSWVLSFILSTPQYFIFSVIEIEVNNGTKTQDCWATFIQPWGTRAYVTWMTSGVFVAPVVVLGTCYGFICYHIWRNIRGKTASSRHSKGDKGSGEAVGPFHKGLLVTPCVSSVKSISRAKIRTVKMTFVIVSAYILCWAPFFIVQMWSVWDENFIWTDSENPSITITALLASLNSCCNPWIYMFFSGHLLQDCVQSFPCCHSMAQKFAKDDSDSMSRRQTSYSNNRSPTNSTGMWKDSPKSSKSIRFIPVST

One experiment addresses Vasopressin V1a receptor (Rattus norvegicus, UniProt P30560). The experiment can be described thus: Ability to displace [3H]- Arginine Vasopressin (AVP) from its specific binding sites in rat liver (V1 receptor).
Conditions: not given
The molecule `O=C(c1ccc(F)cc1)N1CCC(N2C(=O)CCc3ccccc32)CC1` had an IC50 of 1.4 µM.

The molecule `CC(=O)N(C)CCCOc1ccc(C(=O)N2CCC(N3C(=O)CCc4ccccc43)CC2)cc1` had an IC50 of 0.54 µM.

With `O=C(c1cccs1)N1CCC(N2C(=O)CCc3ccccc32)CC1`, the half-inhibitory concentration (IC50) amounted to 2.5 µM.

Molecule `COC(=O)NCCCOc1ccc(C(=O)N2CCC(N3C(=O)CCc4ccccc43)CC2)cc1` displayed an IC50 of 0.36 µM.

In turn, `O=C(c1ccc(O)cc1)N1CCC(N2C(=O)CCc3ccccc32)CC1` gave an IC50 of 1.3 µM.

Molecule `Cc1cccc(C(=O)N2CCC(N3C(=O)CCc4ccccc43)CC2)c1` had an IC50 of 1.3 µM.

In turn, `O=CNCCCCOc1ccc(C(=O)N2CCC(N3C(=O)CCc4ccccc43)CC2)cc1` had an IC50 of 0.25 µM.

`O=C(c1ccncc1)N1CCC(N2C(=O)CCc3ccccc32)CC1` displayed a half-maximal inhibitory concentration (IC50) of 37 µM.

Molecule `Cc1ccc(C(=O)N2CCC(N3C(=O)CCc4ccccc43)CC2)cc1` had an IC50 of 0.5 µM.

`NCCCCCCOc1ccc(C(=O)N2CCC(N3C(=O)CCc4ccccc43)CC2)cc1` registered an IC50 of 0.1 µM.

Turning to `NCCCCCOc1ccc(C(=O)N2CCC(N3C(=O)CCc4ccccc43)CC2)cc1`, the IC50 is 0.28 µM.

Take `N#Cc1ccc(C(=O)N2CCC(N3C(=O)CCc4ccccc43)CC2)cc1`: the IC50 stood at 3.1 µM.

The molecule `O=C(c1ccc([N+](=O)[O-])cc1)N1CCC(N2C(=O)CCc3ccccc32)CC1` displayed an IC50 of 2 µM.

In the case of `CC(=O)NCCCCCCCCOc1ccc(C(=O)N2CCC(N3C(=O)CCc4ccccc43)CC2)cc1`, the IC50 is 0.3 µM.

The molecule `NCCCOc1ccc(C(=O)N2CCC(N3C(=O)CCc4ccccc43)CC2)cc1` gave an IC50 of 0.75 µM.

The molecule `O=C(c1cccc(O)c1)N1CCC(N2C(=O)CCc3ccccc32)CC1` yielded an IC50 of 6.3 µM.

Take `NCCOc1ccc(C(=O)N2CCC(N3C(=O)CCc4ccccc43)CC2)cc1`: the IC50 turned out to be 2 µM.

Regarding `O=C(c1ccc(Cl)cc1)N1CCC(N2C(=O)CCc3ccccc32)CC1`, the IC50 came out at 1.2 µM.

For the molecule `CC(=O)Oc1ccccc1C(=O)N1CCC(N2C(=O)CCc3ccccc32)CC1`, the IC50 came to 1.4 µM.

Turning to `O=C(c1cnccn1)N1CCC(N2C(=O)CCc3ccccc32)CC1`, the IC50 was determined as 26 µM.

Regarding `O=C(c1ccccc1)N1CCC(N2C(=O)CCc3ccccc32)CC1`, the IC50 was determined as 1.9 µM.

Turning to `O=C(c1ccccc1Cl)N1CCC(N2C(=O)CCc3ccccc32)CC1`, the IC50 was 9.9 µM.

In the case of `O=C(c1ccco1)N1CCC(N2C(=O)CCc3ccccc32)CC1`, the IC50 is 11 µM.

For `O=C1CCc2ccccc2N1C1CCN(Cc2ccccc2)CC1`, the IC50 is more than 100 µM.

`Cc1ccccc1C(=O)N1CCC(N2C(=O)CCc3ccccc32)CC1`: the concentration for half-maximal inhibition (IC50) is 8.4 µM.

`CC(=O)Nc1ccc(C(=O)N2CCC(N3C(=O)CCc4ccccc43)CC2)cc1` yielded an IC50 of 2.8 µM.

In turn, `COC(=O)c1ccc(C(=O)N2CCC(N3C(=O)CCc4ccccc43)CC2)cc1` yielded an IC50 of 3.5 µM.

The molecule `CC(=O)NCCCCCCOc1ccc(C(=O)N2CCC(N3C(=O)CCc4ccccc43)CC2)cc1` registered an IC50 of 0.12 µM.

Another experiment addresses Vasopressin V2 receptor (Rattus norvegicus, UniProt Q00788). The experiment can be described thus: Ability to displace [3H]- Arginine Vasopressin (AVP) from its specific binding sites in rat […].
Conditions: not given
`CC(=O)Oc1ccc(C(=O)N2CCC(N3C(=O)CCc4ccccc43)CC2)cc1` returned an IC50 of more than 100 µM.

As for `O=C(c1ccc(F)cc1)N1CCC(N2C(=O)CCc3ccccc32)CC1`, the IC50 is more than 100 µM.

Molecule `CC(=O)N(C)CCCOc1ccc(C(=O)N2CCC(N3C(=O)CCc4ccccc43)CC2)cc1` returned an IC50 of more than 100 µM.

The molecule `O=C(c1cccs1)N1CCC(N2C(=O)CCc3ccccc32)CC1` returned an IC50 of more than 100 µM.

`COC(=O)NCCCOc1ccc(C(=O)N2CCC(N3C(=O)CCc4ccccc43)CC2)cc1` yielded an IC50 of more than 100 µM.

In the case of `O=C(c1ccc(O)cc1)N1CCC(N2C(=O)CCc3ccccc32)CC1`, the IC50 was more than 100 µM.

Turning to `Cc1cccc(C(=O)N2CCC(N3C(=O)CCc4ccccc43)CC2)c1`, the IC50 was more than 100 µM.

Regarding `O=CNCCCCOc1ccc(C(=O)N2CCC(N3C(=O)CCc4ccccc43)CC2)cc1`, the IC50 was more than 100 µM.

Molecule `O=C(c1ccncc1)N1CCC(N2C(=O)CCc3ccccc32)CC1` came in with an IC50 of more than 100 µM.

On to `Cc1ccc(C(=O)N2CCC(N3C(=O)CCc4ccccc43)CC2)cc1`, for which the 50% inhibitory concentration (IC50) was more than 100 µM.

In the case of `NCCCCCCOc1ccc(C(=O)N2CCC(N3C(=O)CCc4ccccc43)CC2)cc1`, the IC50 was more than 100 µM.

Regarding `NCCCCCOc1ccc(C(=O)N2CCC(N3C(=O)CCc4ccccc43)CC2)cc1`, the IC50 is more than 100 µM.

Molecule `N#Cc1ccc(C(=O)N2CCC(N3C(=O)CCc4ccccc43)CC2)cc1` had an IC50 of more than 100 µM.

`O=C(c1ccc([N+](=O)[O-])cc1)N1CCC(N2C(=O)CCc3ccccc32)CC1` registered an IC50 of more than 100 µM.

`CC(=O)NCCCCCCCCOc1ccc(C(=O)N2CCC(N3C(=O)CCc4ccccc43)CC2)cc1`: the IC50 is more than 100 µM.

For `NCCCOc1ccc(C(=O)N2CCC(N3C(=O)CCc4ccccc43)CC2)cc1`, the IC50 was more than 100 µM.

`O=C(c1cccc(O)c1)N1CCC(N2C(=O)CCc3ccccc32)CC1` gave an IC50 of more than 100 µM.

As to `NCCOc1ccc(C(=O)N2CCC(N3C(=O)CCc4ccccc43)CC2)cc1`, the IC50 was more than 100 µM.

Molecule `O=C(c1ccc(Cl)cc1)N1CCC(N2C(=O)CCc3ccccc32)CC1` registered an IC50 of 78 µM.

In turn, `CC(=O)Oc1ccccc1C(=O)N1CCC(N2C(=O)CCc3ccccc32)CC1` displayed an IC50 of more than 100 µM.

For `O=C(c1cnccn1)N1CCC(N2C(=O)CCc3ccccc32)CC1`, the IC50 was more than 100 µM.

As to `O=C(c1ccccc1)N1CCC(N2C(=O)CCc3ccccc32)CC1`, the IC50 is more than 50 µM.

The molecule `O=C(c1ccccc1Cl)N1CCC(N2C(=O)CCc3ccccc32)CC1` came in with an IC50 of more than 100 µM.

Turning to `O=C(c1ccco1)N1CCC(N2C(=O)CCc3ccccc32)CC1`, the IC50 was more than 100 µM.

Turning to `O=C1CCc2ccccc2N1C1CCN(Cc2ccccc2)CC1`, the IC50 is more than 100 µM.

Molecule `Cc1ccccc1C(=O)N1CCC(N2C(=O)CCc3ccccc32)CC1` returned an IC50 of more than 100 µM.

`CC(=O)Nc1ccc(C(=O)N2CCC(N3C(=O)CCc4ccccc43)CC2)cc1`: the IC50 was more than 100 µM.

On to `COC(=O)c1ccc(C(=O)N2CCC(N3C(=O)CCc4ccccc43)CC2)cc1`, for which the IC50 was more than 100 µM.

`CC(=O)NCCCCCCOc1ccc(C(=O)N2CCC(N3C(=O)CCc4ccccc43)CC2)cc1` had an IC50 of more than 100 µM.

The target in a further experiment is Vasopressin V1a receptor (Rattus norvegicus) (UniProt P30560). The settings on record: Artery; 290 uM.
Vasopressin V1a receptor (Rattus norvegicus), sequence (P30560 whole entry, looked up): as the sequence (P30560 whole entry) above
Description: Inhibition expressed as percent change in diastolic blood pressure increased by AVP (30 milliunits / kg, iv) before and after oral administration at 290 uM/kg
Molecule `Cc1ccc(C(=O)N2CCC(N3C(=O)CCc4ccccc43)CC2)cc1` returned an inhibition of 23%.
